Entries after “also recorded” stand apart in the source; their conditions may differ. Where two headings read alike, the source gives them in different places. Non-standard residues stand in square brackets, D forms with d. Residues, ends and D or L forms follow the SMILES beside them. *: point of attachment. Dolaproine = CO[C@@H]([C@@H]1CCCN1)[C@@H](C)C(=O)O; Dil = CC[C@H](C)[C@H](NC)[C@@H](CC(=O)O)OC; X1 = C[C@@H](N*)[C@@H](O)c1ccccc1; NMeV = CN[C@H](C(=O)O)C(C)C
What was measured:
[1] = tested on: HCT-116 cells; test: Cell cycle analysis by FACS with PI staining; format: cell-based, Human
Protocol: (§1) Cells were treated with 0, 1, 2, or 5 nM MMAE for 24 hours and then fixed in methanol. Cells were treated with RNAse, stained with propidium iodide and analyzed by FACS using FloJo software.
(§2) Cells were treated with MMAE for 24 hours and then fixed in methanol. Cells were treated with RNAse, stained with propidium iodide (PI), and analyzed by FACS using FlowJo software.

[2] = tested on: PANC-1 cells; test: Cell cycle analysis by FACS with PI staining; format: cell-based, Human; conditions: 2 nmol/L MMAE, 24 hours
Protocol: as §1, §2

[3] = tested on: HCT-116 cells; test: Alamar Blue cell viability assay; format: cell-based, Human
Protocol: Alamar Blue (also known as resazurin) was added to the cells and allowed to incubate for 2 hrs at 37° C. Plates were analyzed using a plate reader with fluorescence measured at 560 nm. For irradiated cells, cells were treated with MMAE overnight followed by 6 Gy.
(§3) Alamar Blue (resazurin) was added to the cells and allowed to incubate for 2 hrs at 37° C. Plates were analyzed using a plate reader with fluorescence measured at 560 nm.
Cells were plated in 96-well plates and exposed to MMAE or paclitaxel for 72 hours and analyzed at 560 nm. For irradiated cells, cells were treated with MMAE overnight followed by 6 Gy.

[4] = tested on: 779E cells; test: Neutral comet assay (DNA double strand breaks); format: cell-based, Human; conditions: MMAE overnight in combination with IR
Protocol: (§4) Cells were treated for 24 hours with indicated doses of MMAE and then irradiated with 6 Gy. Cells were harvested 15 minutes post IR, suspended in agarose gel and lysed per assay directions (Trevigen). Samples underwent electrophoresis under neutral conditions and were then stained with Sybr Green. Comet tails were counted in multiple fields (>60 cells per sample) and analyzed using CometScore (TriTek Corp).
(§5) Cells were treated for indicated length and doses of MMAE followed by 6 Gy. Cells were harvested 15 minutes after IR and underwent neutral electrophoresis (Trevigen). Comet tails were counted in multiple fields (>60 cells per sample) and analyzed using CometScore (TriTek Corp).

[5] = tested on: HCT-116 cells; test: Neutral comet assay (DNA double strand breaks); format: cell-based, Human
Protocol: as §4, §5

[6] = tested on: XPA-1 cells; test: Neutral comet assay (DNA double strand breaks); format: cell-based; conditions: MMAE overnight, then IR
Protocol: as §5

[7] = tested on: HCT-116 cells; test: Apoptosis (sub-G1 population) after MMAE and IR; format: cell-based, Human
Protocol: as §2
(§6) Because MMAE reduced clonogenic cell survival following IR, we tested whether MMAE increased apoptosis in irradiated cells. HCT-116 cells were treated with MMAE for 24 hours followed by IR. Cells were collected 24 hours after IR and the sub-G1 population (apoptotic) was measured. […] Because MMAE increased DNA double-strand breaks in irradiated cells (FIG. 34), we then evaluated whether MMAE altered the DNA damage response in irradiated cells. HCT-116 cells were treated with MMAE for 24 hours followed by 6 Gy. Cells were collected 1 hour after IR, and activation of the DNA damage checkpoint proteins CHK1 (pS345) and CHK2 (pT68) was ascertained (FIG. 36B). […] Upon DNA damage, histone H2A becomes phosphorylated at S139, γH2AX.

[8] = tested on: CHK1 (pS345); test: Immunoblot for DNA damage checkpoint activation in HCT-116 cells; format: cell-based, Human; conditions: MMAE 24 hours, then 6 Gy
Protocol: (§7) MMAE- and IR-treated cells were harvested and lysed in RIPA buffer with protease and phosphatase inhibitors (Roche). Thirty micrograms of lysate underwent electrophoresis using 4% to 12% Bis-Tris gels (Life Technologies), transferred to polyvinylidene difluoride (PVDF) membranes, and incubated with indicated primary antibodies (Cell Signaling Technology). Blots were developed by ECL (Pierce).
as §6

[9] = tested on: cyclin B; test: Immunoblot for cell phase-specific cyclins in HCT-116 cells; format: cell-based, Human; conditions: 5 nmol/L MMAE, 24-hour exposure
Protocol: as §7
Because MMAE blocks cells in the radiosensitive G2-M phase of the cell cycle, we tested whether MMAE specifically interacted with IR. We hypothesized that while a short exposure to MMAE would not influence radiosensitivity, prolonged MMAE exposure with cells accumulating in G2-M would increase sensitivity to IR. DNA double-stand breaks are a hallmark of IR damage and can be measured by neutral comet assay. HCT-116 cells were treated with 5 nmol/L MMAE for varying lengths of time (0, 2, 4, or 24 hours) and then irradiated (FIG. 34A).

[10] = tested on: PANC-1 tumor xenografts; test: In vivo tumor xenograft growth with or without IR; parameters: species or system mice
Protocol: HCT-116 or PANC-1 tumor xenografts were established and tumor growth was measured with digital calipers. Tumor volume was calculated using the formula as ½*Length*Width^2. Mice were randomized into groups once the average tumor volume reached 250 mm^3. Mice were assigned to groups: Vehicle, ACPP-cRGD-MMAE, fractionated IR or the combination. ACPP-cRGD-MMAE lyophilized powder was suspended in sterile deionized water just prior to tail vein injection. MMAE doses and IR fractionation are as indicated in the Results.
HCT-116 or PANC-1 tumor growth was measured with digital calipers. Tumor volume was calculated using the formula as ½×length×width^2. Mice were randomized into groups as indicated in Results once the average tumor volume reached >200 mm^3. Free MMAE was injected on an equimolar basis to ACPP-cRGD-MMAE.

[11] = tested on: CAL-27 cells; test: Cell cycle analysis by flow cytometry (PI); format: cell-based, Human; conditions: 5 nM, 24 hrs
Protocol: Cells were treated with RNAse, stained with propidium iodide (PI) and analyzed by FACS using FloJo software.

[12] = tested on: CAL-27 cells; test: Alamar Blue cell viability assay; format: cell-based, Human; conditions: 72 hours
Protocol: as §3

[13] = tested on: CAL-27 tumor xenografts; test: In vivo tumor xenograft growth with or without IR; parameters: species or system mice; conditions: day 0 iv: 0.5 nmoles antibody or 2 nmoles free MMAE; no IR
Protocol: CAL-27 tumor xenografts were established and tumor growth was measured with digital calipers. Tumor volume was calculated using the formula as ½*Length*Width^2. Mice were randomized into groups once the average tumor volume reached >150 mm^3. Mice were assigned to indicated groups in the Results. […] Free MMAE was injected on an equimolar basis to ACPP-cRGD-MMAE in final volume of 3% DMSO. MMAE doses and IR fractionation are as indicated in the Results.

## CC[C@H](C)[C@@H]([C@@H](CC(=O)N1CCC[C@H]1[C@H](OC)[C@@H](C)C(=O)N[C@H](C)[C@@H](O)c1ccccc1)OC)N(C)C(=O)[C@@H](NC(=O)[C@@H](NC)C(C)C)C(C)C [MMAE, monomethyl auristatin E] (H-[NMeV]V[Dil][Dolaproine]-X1)
[1]; 1 nmol/L MMAE, 24 hours
  cell-cycle profile: did not alter the cell-cycle profile
[1]; 5 nM (5 nmol/L) MMAE, 24 hrs
  cells blocked in G2/M: 50%
[2]
  cells blocked in G2-M: 50%
[3]; 72 hours exposure (Example 3), read-out: IC50
  IC50: 1.7 nM
[3]; 72 hours exposure, read-out: IC50
  IC50: 1.66 nM
[3]; MMAE alone, no IR (Example 3), read-out: IC50 for MMAE
  IC50: 1.6 nM
[3]; MMAE alone, no IR, continuous exposure, viability 72 hours after initiation, read-out: IC50 for MMAE
  IC50: 1.58 nM
[3]; MMAE and 6 Gy IR (Example 3), read-out: IC50 for MMAE
  IC50: 0.8 nM
[3]; MMAE overnight then 6 Gy IR, continuous exposure, viability at 72 hours, read-out: IC50 for MMAE
  IC50: 0.78 nM
[4]
  comet tail length: significantly increased comet tail length
[5]; 1 nM MMAE 24 hours, then 6 Gy
  comet tail length vs IR alone: did not significantly increase; also recorded: did not increase DNA damage over IR alone
[5]; 5 nM MMAE 24 hours, then 6 Gy
  comet tail length vs IR alone: significant increase; also recorded: significantly increased comet tail length
[5]; 5 nmol/L MMAE for 2 or 4 hours, then IR
  comet tail length vs IR alone: did not increase comet tail length
[5]; non-irradiated, 1 or 5 nM MMAE overnight
  comet tail length vs vehicle: no significant effect
[6]
  comet tail length: significantly increased comet tail length
[7]; MMAE 24 hours then IR, collected 24 hours after IR
  apoptosis, IR combined with MMAE vs MMAE: no further increase in apoptosis
[7]; MMAE alone, 24 hours
  apoptosis vs vehicle: significant increase in apoptosis
[8]
  CHK1 activation in irradiated cells: enhanced CHK1 activation
[9]
  accumulation of cyclins: specific accumulation of the G2-M cyclin B
[10]; day 30, + IR
  V(end)/V(0) ≤ 1, PANC-1, expt 1: 0%
[10]; day 30, no IR
  V(end)/V(0) ≤ 1, PANC-1, expt 1: 0%
[10]; expt 1, day 20, no IR
  tumor xenografts smaller than starting tumor volume: None
[10]; expt 1, day 20, with IR
  tumor xenografts less than or equal to starting tumor volume: 4/10
[10]; expt 1: 6 nmoles days 0 and 1 plus IR 3 Gy days 1 and 2, listed as free MMAE
  tumor regression vs IR or free MMAE alone: increased tumor xenograft regression; also recorded: profound tumor xenograft regression
[10]; expt 1: iv days 0 and 1, 6 nmoles/day, no IR, day 30
  average tumor volume relative to untreated controls: 75%
[10]; expt 1: iv days 0 and 1, 6 nmoles/day, no IR, listed as free MMAE
  tumor growth vs untreated control: modest, but statistically significant growth delay; also recorded: small but statistically significant growth delay
[11]
  cells in G2/M: 60%
[12]
  IC50: 1.1 nM
[13]
  tumor growth, non-irradiated tumors: delayed tumor growth
